# Measurements: US11780843B2, “Compounds active towards nuclear receptors” (NUEVOLUTION A/S, priority 2020, dated 2023)
# Like-named read-outs stand apart in the source and are kept apart here.
# Tests used:
# [1] = target: T1, RORγ ligand-binding domain (Homo sapiens, UniProt P51449); assay: RORγ Reporter Assay (Gal4); type: cell-based
# T1 construct: Gal4 (galactose-responsive transcription factor); expressed in transfected cells; host or cells: HEK293, transient co-transfection
# T1 sequence (P51449 269-508 limits assumed): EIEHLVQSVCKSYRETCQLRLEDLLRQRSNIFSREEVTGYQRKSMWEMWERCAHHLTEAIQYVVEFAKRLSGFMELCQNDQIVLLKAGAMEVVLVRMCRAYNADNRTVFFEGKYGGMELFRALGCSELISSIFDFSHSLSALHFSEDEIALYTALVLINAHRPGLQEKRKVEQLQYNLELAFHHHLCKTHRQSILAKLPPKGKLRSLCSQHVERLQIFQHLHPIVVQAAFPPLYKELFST
# Procedure: The HEK293 cell line is co-transfected transiently with two plasmids, one with the RORγ ligand-binding domain fused to galactose-responsive transcription factor (Ga14), and the other with the luciferase reporter gene and Gal binding sites (UAS). This construction allows to determine the RORT activity in a cellular system through the measurement of luminescence.
# A suspension of RORγ reporter cells was dispensed into plates and cultured 2 h at 37° C. and 5% CO2. Media formulation consisted in DMEM/F-12 medium (Gibco) supplemented with 10% heat inactivated FBS (Sigma-Aldrich), non-essential aminoacids (Sigma-Aldrich), 2 mM Glutamax (Gibco) and 100 U/mL penicillin (Sigma-Aldrich). Dose-response curves with compounds were prepared in 100% DMSO and further diluted 100-fold in culture medium. Compound solutions were added to the plate containing cells (final DMSO concentration of 0.1%) and incubated for 24 h at 37° C. and 5% CO2. Luciferase detection reagent was added to each well, and relative light units (RLUs) were quantified from each assay well using a plate reading luminometer.
# Values of average RLU±S.D. were computed for all treatment sets, followed by the calculations of percent-reduction of RORT activity in response to respective test compound. The following formula was used: activity=100*[1−[[…]] where the theoretical minimum reduction (0% reduction). […] These calculations were performed in excel-fit software using X-204 model curve.
# [2] = test system: IL-17A secretion in activated PBMCs; assay: IL-17A secretion in activated PBMCs; type: cell-based; conditions: human PBMCs stimulated with CD3/CD28 Dynabeads for 48 h, absolute IC50
# Excerpt: Heparin-treated whole blood from healthy human volunteers was supplied from Hospital de Sant Pau (Barcelona) under the approval of the local ethical review board for human studies (Hospital de Sant Pau, Barcelona, Spain). Human peripheral blood mononuclear cells (PBMCs) were isolated from healthy human volunteers by density gradient centrifugation using the Ficoll-Paque (GE Healthcare). PBMCs were suspended in cell culture medium which consisted on RPMI 1640 medium (Sigma-Aldrich) containing 10% heat inactivated fetal bovine serum (Sigma-Aldrich), 2 mM L-Glutamine (Gibco), 20 mM Hepes (Gibco) and 100 U/mL penicillin (Sigma-Aldrich). Cells were seeded in 384-well plate (DiscoverX), at 40,000 cells per well and cultured 2 h at 37° C. and 5% CO2.
# Dose-response curves with compounds were prepared using a 5-fold serial dilution (10 concentrations) in 100% DMSO and further diluted 100-fold in culture medium. Compound solutions (5 μL) were added to the plate containing cells (final DMSO concentration of 0.1%) and incubated for 30 min. Then, cells were stimulated with CD3/CD28 Dynabeads (ThermoFisher, at a bead-to-cell ratio of 1:1) for 48 h at 37° C. and 5% CO2.
# IL-17A levels in supernatant were determined by immunoassay using hIL17A QBeads (Intellicyt) and by fluorescence analysis in iQue flow cytometer following the manufacturer's instructions. Inhibition of IL-17A secretion was calculated using the following formula: inhibition=100*[1−[(x−mean basal condition)/(mean top condition—mean basal condition)]]. Activated DMSO-treated cells were used as top condition and activated GNE09461 (10 μM)-treated cells as basal condition.
# [3] = HEK293 cells, luciferase reporter, 24 h incubation, absolute IC50, read-out: IC50
Compound,"IC50 [1, 3] [nM]","IC50 ([1]; stated as a bound only (Tables 5 a, 6, 7), read-out: Gal4 assay IC50) [nM]","IC50 ([2]; Homo sapiens, PBMC, 48 h) [nM]",IC50 [2] [nM]
"CCN(Cc1ccc(C(F)(F)F)cc1F)c1ncnc2c1ccn2C[C@@H]1CCN(CC(N)=O)C[C@H]1O (relative stereo) [P6-32″, rel-2-((3R,4R)-4-((4-(ethyl(2-fluoro-4-(trifluoromethyl)benzyl)amino)-7H-pyrrolo[2,3-d]pyrimidin-7-yl)methyl)-3-hydroxypiperidin-1-yl)acetamide]",2,,8.4,
"NC(=O)CN1CC[C@@H](Cn2cc(F)c3c(N(Cc4ccc(C(F)(F)F)nc4)C4CC4)ncnc32)[C@H](O)C1 (racemic) [Example P6-15, rac-2-((3R,4R)-4-((4-(cyclopropyl((6-(trifluoromethyl)pyridin-3-yl)methyl)amino)-5-fluoro-7H-pyrrolo[2,3-d]pyrimidin-7-yl)methyl)-3-hydroxypiperidin-1-yl)acetamide]",10,,18,
"CCN(Cc1ccc(C(F)(F)F)cc1F)c1ncnc2c1ccn2C[C@@]1(O)CCN(CC(N)=O)C[C@@H]1O (single isomer, unassigned) [Example L5-3-1-2]",4.4,,,10
"NC(=O)CN1CC[C@@H](Cn2ccc3c(N(Cc4ccc(C(F)(F)F)cc4)C4CC4)ncnc32)[C@H](O)C1 (single isomer, unassigned) [Example P6-13-1]",1.6,< 100,1.1,
"NC(=O)CN1CC[C@](O)(Cn2ccc3c(N(Cc4ccc(-n5cccn5)cc4)C4CC4)ncnc32)[C@@H](O)C1 (single isomer, unassigned) [Example R5-2-2]",6.5,,,7.4
"CCN(Cc1ccc(C(F)(F)F)cc1)c1ncnc2c1ccn2C[C@@]1(O)CCN(CC(N)=O)C[C@@H]1O (single isomer, unassigned) [Example L5-2-1-1]",1.4,,,2.7
"NC(=O)CN1CC[C@@H](Cn2ccc3c(N4CCOC[C@@H]4c4cccc(C(F)(F)F)c4)ncnc32)[C@H](O)C1 (single isomer, unassigned) [Example P6-03-2]",26,,,
"CC(C(N)=O)N1CCC(Cn2cnc3c(N(Cc4ccc(C(F)(F)F)cc4)C4CC4)ncnc32)CC1 (centres unmarked) [Example P6-08, 2-(4-((6-(cyclopropyl(4-(trifluoromethyl)benzyl)amino)-9H-purin-9-yl)methyl)piperidin-1-yl)propanamide]",231,,,
"CC(C)N(Cc1ccc(C(F)(F)F)cc1)c1ncnc2c1ncn2C[C@@H]1CCN(CC(N)=O)C[C@H]1O (racemic) [Example P6-22, rac-2-((3R,4R)-3-hydroxy-4-((6-(isopropyl(4-(trifluoromethyl)benzyl)amino)-9H-purin-9-yl)methyl)piperidin-1-yl)acetamide]",77,,,

# More lines, in order of falling IC50 [1, 3], values ahead:
"IC50 [1, 3] [nM]","IC50 ([1]; stated as a bound only (Tables 5 a, 6, 7), read-out: Gal4 assay IC50) [nM]",Compound,"IC50 ([2]; Homo sapiens, PBMC, 48 h) [nM]",IC50 [2] [nM]
63,,"CCN(Cc1ccc(C(F)(F)F)cc1F)c1ncnc2c1ccn2C[C@@]1(O)CCN(CC(N)=O)C[C@@H]1O (racemic) [Example L5-3-1, rac-2-((3R,4R)-4-((4-(ethyl(2-fluoro-4-(trifluoromethyl)benzyl)amino)-7H-pyrrolo[2,3-d]pyrimidin-7-yl)methyl)-3,4-dihydroxypiperidin-1-yl)acetamide]",,
62,,"NC(=O)CN1CCC(Cn2cc(F)c3c(N(Cc4ccc(C(F)(F)F)cc4)C4CC4)ncnc32)CC1 [Example P6-05, 2-(4-((4-(cyclopropyl(4-(trifluoromethyl)benzyl)amino)-5-fluoro-7H-pyrrolo[2,3-d]pyrimidin-7-yl)methyl)piperidin-1-yl)acetamide]",20,
15,,"NC(=O)CN1CC[C@@H](Cn2ccc3c(N(Cc4ccc(C(F)(F)F)cn4)C4CC4)ncnc32)[C@H](O)C1 (single isomer, unassigned) [Example P6-23-2]",,98
13,,"NC(=O)CN1CC[C@@H](Cn2ccc3c(N4CCOC[C@@H]4c4cccc(C(F)(F)F)c4)ncnc32)[C@H](O)C1 (single isomer, unassigned) [Example P6-03-1]",,
9.8,,"CC(C)N(Cc1ccc(C(F)(F)F)cc1)c1ncnc2c1c(F)cn2C[C@@H]1CCN(CC(N)=O)C[C@H]1O (racemic) [Example P6-19, rac-2-((3R,4R)-4-((5-fluoro-4-(isopropyl(4-(trifluoromethyl)benzyl)amino)-7H-pyrrolo[2,3-d]pyrimidin-7-yl)methyl)-3-hydroxypiperidin-1-yl)acetamide]",15,
9,,"NC(=O)CN1CCC(Cn2ccc3c(N(Cc4ccc(C(F)(F)F)cc4)C4CC4)ncnc32)C(F)(F)C1 (single isomer, unassigned) [Example K8-1-1]",,
8.1,,"NC(=O)CN1CC[C@](O)(Cn2ccc3c(N(Cc4ccc(-n5cccn5)cc4)C4CC4)ncnc32)[C@@H](O)C1 (relative stereo) [R5-2″, Rel-2-((3R,4R)-4-((4-((4-(1H-pyrazol-1-yl)benzyl)(cyclopropyl)amino)-7H-pyrrolo[2,3-d]pyrimidin-7-yl)methyl)-3,4-dihydroxypiperidin-1-yl)acetamide]",7.4,
6.6,,"CCN(Cc1ccc(C(F)(F)F)cc1)c1ncnc2c1c(F)cn2C[C@@H]1CCN(CC(N)=O)C[C@H]1O (racemic) [Example P6-21, rac-2-((3R,4R)-4-((4-(ethyl(4-(trifluoromethyl)benzyl)amino)-5-fluoro-7H-pyrrolo[2,3-d]pyrimidin-7-yl)methyl)-3-hydroxypiperidin-1-yl)acetamide]",11,
5.1,,"NC(=O)CN1CC[C@@H](Cn2cnc3c(N(Cc4ccc(C(F)(F)F)cc4)C4CC4)ncnc32)[C@H](O)C1 (relative stereo) [P6-26″, rel-2-((3R,4R)-4-((6-(cyclopropyl(4-(trifluoromethyl)benzyl)amino)-9H-purin-9-yl)methyl)-3-hydroxypiperidin-1-yl)acetamide]",21,
4.6,,"CCN(Cc1ccc(C(F)(F)F)cc1)c1ncnc2c1ccn2C[C@@H]1CCN(CC(N)=O)C[C@H]1O (racemic) [Example P6-24, rac-2-((3R,4R)-4-((4-(ethyl(4-(trifluoromethyl)benzyl)amino)-7H-pyrrolo[2,3-d]pyrimidin-7-yl)methyl)-3-hydroxypiperidin-1-yl)acetamide]",22,
3,,"CCN(Cc1ccc(C(F)(F)F)cc1F)c1ncnc2c1ccn2C[C@@]1(O)CCN(CC(N)=O)C[C@@H]1O (single isomer, unassigned) [Example L5-3-1-1]",9.8,
2,,"NC(=O)CN1CC[C@@H](Cn2ccc3c(N(Cc4ccc(C(F)(F)F)cc4)C4CC4)ncnc32)[C@H](O)C1 (single isomer, unassigned) [Example P6-13-2]",,1.3
1.9,,"CCN(Cc1ccc(C(F)(F)F)c(F)c1)c1ncnc2c1ccn2C[C@@H]1CCN(CC(N)=O)C[C@H]1O (relative stereo) [P6-31″, rel-2-((3R,4R)-4-((4-(ethyl(3-fluoro-4-(trifluoromethyl)benzyl)amino)-7H-pyrrolo[2,3-d]pyrimidin-7-yl)methyl)-3-hydroxypiperidin-1-yl)acetamide]",6,
1,,"NC(=O)CN1CC[C@@H](Cn2cc(F)c3c(N(Cc4ccc(C(F)(F)F)cc4)C4CC4)ncnc32)[C@H](O)C1 (racemic) [Example P6-14, rac-2-((3R,4R)-4-((4-(cyclopropyl(4-(trifluoromethyl)benzyl)amino)-5-fluoro-7H-pyrrolo[2,3-d]pyrimidin-7-yl)methyl)-3-hydroxypiperidin-1-yl)acetamide]",2.2,
